Measured values taken from the supplement of paper PMC12463676, “Small-molecule dissolution of stress granules by redox modulation benefits ALS models” (Nature Chemical Biology, 2025).

What was measured:
lipoamide = compound: NC(=O)CCCCC1CCSS1 [lipoamide]; experiment: thermal stability z-score vs DMSO; higher = more thermally stabilized by treatment; settings: HeLa, lipoamide concentration 100 µM
Protocol: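 Cellular thermal proteome profiling in HeLa cells. Cells were treated with 100 µM lipoamide for 1 h, with or without 1 mM arsenate for a further 1 h, then heated to ten temperatures (37-66.3 °C), and soluble protein was quantified by TMT mass spectrometry relative to 0.1% DMSO controls. The thermal stability score (sum of log2 fold changes minus the abundance score) was transformed to a z-score; mean of n = 3 experiments.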

potassium arsenate = compound: O=[As]([O-])(O)O.[K+] [potassium arsenate]; experiment: as above; settings: HeLa; arsenate concentration 1 mM
Protocol: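 Cellular thermal proteome profiling in HeLa cells treated with 1 mM arsenate for 1 h (DMSO pretreatment), heated to ten temperatures (37-66.3 °C). Soluble protein was quantified by TMT mass spectrometry relative to DMSO controls; the thermal stability score was transformed to a z-score; mean of n = 3 experiments.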

[1] = arsenate co-treatment: 1 mM arsenate 1 h
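Note: each temperature applied for 3 min, abundance score taken as mean log2 fold change at the two lowest temperatures, z-score obtained by mean subtraction and division by SD.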

UniProt O75150, sequence (O75150 whole entry): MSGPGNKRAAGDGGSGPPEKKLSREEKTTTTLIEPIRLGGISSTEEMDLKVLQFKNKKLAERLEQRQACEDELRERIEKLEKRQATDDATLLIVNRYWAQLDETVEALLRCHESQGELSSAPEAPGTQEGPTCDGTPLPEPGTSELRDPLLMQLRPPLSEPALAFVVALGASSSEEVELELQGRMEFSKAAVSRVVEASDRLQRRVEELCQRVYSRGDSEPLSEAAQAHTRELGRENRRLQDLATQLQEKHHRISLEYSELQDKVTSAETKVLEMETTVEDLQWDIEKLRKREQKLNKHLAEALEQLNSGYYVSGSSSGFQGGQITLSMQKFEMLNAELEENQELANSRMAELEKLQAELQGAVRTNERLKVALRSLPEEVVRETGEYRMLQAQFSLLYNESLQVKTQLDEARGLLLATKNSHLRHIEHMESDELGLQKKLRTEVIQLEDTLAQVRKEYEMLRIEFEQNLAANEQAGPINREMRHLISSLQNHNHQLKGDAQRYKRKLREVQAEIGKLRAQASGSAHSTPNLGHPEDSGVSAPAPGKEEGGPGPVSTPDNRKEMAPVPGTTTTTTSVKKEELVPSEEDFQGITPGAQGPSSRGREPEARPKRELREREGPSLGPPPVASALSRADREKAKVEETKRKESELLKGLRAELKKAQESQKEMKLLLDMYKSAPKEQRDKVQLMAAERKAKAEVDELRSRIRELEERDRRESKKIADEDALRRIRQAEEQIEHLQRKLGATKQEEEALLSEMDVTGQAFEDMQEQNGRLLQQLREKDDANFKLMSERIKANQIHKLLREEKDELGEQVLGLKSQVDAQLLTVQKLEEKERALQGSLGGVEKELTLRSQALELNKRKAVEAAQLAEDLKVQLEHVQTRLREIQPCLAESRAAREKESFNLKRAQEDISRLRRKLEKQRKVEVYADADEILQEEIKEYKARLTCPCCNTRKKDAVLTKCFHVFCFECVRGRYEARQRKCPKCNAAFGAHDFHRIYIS
UniProt Q99942, sequence (Q99942 whole entry): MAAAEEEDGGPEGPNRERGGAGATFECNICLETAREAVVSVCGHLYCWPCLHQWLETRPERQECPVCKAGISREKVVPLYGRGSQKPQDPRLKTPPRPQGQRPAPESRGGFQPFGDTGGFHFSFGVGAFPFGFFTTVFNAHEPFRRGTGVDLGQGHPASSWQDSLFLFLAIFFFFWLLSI
UniProt P13489, sequence (P13489 whole entry): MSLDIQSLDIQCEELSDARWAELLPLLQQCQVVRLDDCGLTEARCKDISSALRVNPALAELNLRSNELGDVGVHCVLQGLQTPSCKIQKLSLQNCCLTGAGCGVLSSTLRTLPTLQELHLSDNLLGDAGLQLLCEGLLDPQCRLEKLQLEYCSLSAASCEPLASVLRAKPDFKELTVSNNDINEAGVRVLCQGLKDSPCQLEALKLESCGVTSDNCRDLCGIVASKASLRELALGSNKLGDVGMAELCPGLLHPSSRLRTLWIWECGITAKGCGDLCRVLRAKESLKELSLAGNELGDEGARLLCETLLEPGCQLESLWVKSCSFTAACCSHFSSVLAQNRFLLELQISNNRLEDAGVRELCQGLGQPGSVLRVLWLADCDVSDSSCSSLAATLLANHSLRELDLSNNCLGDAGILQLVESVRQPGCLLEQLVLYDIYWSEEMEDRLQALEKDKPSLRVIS
UniProt Q96EP0, sequence (Q96EP0 whole entry): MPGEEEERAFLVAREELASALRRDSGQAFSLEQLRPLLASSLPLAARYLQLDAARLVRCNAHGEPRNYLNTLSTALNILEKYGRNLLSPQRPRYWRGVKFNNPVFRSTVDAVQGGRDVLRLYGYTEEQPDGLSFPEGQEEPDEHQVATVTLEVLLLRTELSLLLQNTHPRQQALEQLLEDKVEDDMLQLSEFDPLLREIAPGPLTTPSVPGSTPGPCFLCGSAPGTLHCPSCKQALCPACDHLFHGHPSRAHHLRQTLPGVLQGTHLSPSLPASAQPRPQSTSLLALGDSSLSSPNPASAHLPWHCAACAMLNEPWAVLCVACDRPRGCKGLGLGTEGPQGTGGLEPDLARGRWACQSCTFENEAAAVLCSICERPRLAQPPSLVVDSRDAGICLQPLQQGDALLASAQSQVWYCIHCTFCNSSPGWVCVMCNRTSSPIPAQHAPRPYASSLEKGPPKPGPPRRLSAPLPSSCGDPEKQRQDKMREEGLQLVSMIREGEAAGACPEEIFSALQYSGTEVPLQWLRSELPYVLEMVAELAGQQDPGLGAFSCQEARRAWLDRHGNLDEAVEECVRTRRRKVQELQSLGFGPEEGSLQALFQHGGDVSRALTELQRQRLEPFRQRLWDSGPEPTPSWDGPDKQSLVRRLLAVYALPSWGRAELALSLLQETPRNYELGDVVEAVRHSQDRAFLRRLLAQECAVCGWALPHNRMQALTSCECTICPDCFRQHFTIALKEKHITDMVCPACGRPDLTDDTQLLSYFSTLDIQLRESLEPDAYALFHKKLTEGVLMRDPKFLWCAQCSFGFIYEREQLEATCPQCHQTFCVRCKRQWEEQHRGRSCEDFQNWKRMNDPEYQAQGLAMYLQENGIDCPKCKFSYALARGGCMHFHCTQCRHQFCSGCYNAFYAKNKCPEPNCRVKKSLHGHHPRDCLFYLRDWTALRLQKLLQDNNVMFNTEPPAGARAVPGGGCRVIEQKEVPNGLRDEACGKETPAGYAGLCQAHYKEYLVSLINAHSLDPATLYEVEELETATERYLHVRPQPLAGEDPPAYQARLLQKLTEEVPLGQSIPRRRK
UniProt Q9P0P0, sequence (Q9P0P0 whole entry): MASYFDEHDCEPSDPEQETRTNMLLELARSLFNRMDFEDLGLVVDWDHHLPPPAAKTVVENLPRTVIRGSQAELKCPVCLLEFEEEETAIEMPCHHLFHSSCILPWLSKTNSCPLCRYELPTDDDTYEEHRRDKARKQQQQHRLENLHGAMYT
UniProt Q9NWF9, sequence (Q9NWF9 whole entry): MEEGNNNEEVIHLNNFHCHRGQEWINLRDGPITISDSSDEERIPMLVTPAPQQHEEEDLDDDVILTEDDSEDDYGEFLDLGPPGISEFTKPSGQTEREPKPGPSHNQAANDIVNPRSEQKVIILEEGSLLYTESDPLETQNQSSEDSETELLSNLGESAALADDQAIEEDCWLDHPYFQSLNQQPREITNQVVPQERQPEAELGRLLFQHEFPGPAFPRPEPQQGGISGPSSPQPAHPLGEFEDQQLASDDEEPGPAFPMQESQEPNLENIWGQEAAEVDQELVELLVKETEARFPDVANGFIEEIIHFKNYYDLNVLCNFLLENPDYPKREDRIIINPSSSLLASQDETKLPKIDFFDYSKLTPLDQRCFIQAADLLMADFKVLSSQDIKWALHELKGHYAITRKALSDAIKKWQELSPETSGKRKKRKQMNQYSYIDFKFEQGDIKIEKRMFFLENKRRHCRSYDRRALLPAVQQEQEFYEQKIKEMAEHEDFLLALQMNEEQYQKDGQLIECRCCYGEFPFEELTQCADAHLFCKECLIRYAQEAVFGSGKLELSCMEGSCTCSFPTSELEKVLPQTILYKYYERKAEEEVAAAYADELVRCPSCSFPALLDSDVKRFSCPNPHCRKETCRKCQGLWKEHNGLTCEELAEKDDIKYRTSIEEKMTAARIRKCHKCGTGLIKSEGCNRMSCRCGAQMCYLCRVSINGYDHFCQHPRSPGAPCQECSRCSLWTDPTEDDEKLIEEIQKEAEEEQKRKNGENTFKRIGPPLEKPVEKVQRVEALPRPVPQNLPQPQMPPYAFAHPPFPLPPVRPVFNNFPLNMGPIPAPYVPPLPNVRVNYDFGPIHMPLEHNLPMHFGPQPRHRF
UniProt Q13546, sequence (Q13546 whole entry): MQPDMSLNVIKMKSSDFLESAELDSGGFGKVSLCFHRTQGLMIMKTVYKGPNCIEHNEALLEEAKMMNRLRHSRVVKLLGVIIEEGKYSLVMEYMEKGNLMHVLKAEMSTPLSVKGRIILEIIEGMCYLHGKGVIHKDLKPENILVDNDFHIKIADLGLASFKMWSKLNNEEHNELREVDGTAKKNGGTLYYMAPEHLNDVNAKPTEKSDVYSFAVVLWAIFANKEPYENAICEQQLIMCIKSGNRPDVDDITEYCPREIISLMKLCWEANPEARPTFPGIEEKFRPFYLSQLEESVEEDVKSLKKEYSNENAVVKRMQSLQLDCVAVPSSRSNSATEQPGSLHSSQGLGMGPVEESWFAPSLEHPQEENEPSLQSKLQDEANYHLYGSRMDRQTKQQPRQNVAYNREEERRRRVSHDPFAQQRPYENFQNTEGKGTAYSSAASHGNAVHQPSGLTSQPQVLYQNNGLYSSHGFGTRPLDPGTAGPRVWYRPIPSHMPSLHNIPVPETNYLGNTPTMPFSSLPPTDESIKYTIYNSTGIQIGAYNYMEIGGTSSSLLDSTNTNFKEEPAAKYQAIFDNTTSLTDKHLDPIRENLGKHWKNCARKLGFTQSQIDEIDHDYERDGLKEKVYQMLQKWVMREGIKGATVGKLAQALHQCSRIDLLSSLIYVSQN
UniProt Q8IXW5, sequence (Q8IXW5 whole entry): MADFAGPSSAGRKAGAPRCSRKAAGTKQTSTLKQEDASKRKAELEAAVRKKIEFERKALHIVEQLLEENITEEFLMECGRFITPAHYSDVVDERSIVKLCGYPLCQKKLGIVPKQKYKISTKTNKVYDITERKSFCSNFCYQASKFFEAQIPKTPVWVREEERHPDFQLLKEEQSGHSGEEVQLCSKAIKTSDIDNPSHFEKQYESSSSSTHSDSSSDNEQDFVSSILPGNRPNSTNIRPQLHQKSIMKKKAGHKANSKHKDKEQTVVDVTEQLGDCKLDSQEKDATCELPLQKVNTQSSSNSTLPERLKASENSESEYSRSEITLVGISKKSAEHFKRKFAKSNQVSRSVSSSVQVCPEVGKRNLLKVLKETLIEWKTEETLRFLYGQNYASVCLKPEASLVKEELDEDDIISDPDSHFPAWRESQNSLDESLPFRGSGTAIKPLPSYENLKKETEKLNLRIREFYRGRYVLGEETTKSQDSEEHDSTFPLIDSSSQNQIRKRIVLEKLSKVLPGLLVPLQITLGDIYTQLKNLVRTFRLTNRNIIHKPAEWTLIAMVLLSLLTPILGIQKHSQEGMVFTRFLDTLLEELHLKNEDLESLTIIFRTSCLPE

Row | Target | thermal stability z-score (lipoamide; [1]) | thermal stability z-score (lipoamide; arsenate co-treatment: none) | thermal stability z-score (potassium arsenate)
1 | RIOK3 (UniProt O14730) | -0.0448 | -0.0085 | 0.507
2 | RIPK1 (UniProt Q13546) | -0.595 | -1.03 | 0.39
3 | RIPK2 (UniProt O43353) | -0.255 | 0.45 | -0.644
4 | RLIM (UniProt Q9NVW2) | -0.546 | -0.0531 | 0.107
5 | RMDN1 (UniProt Q96DB5) | 0.0143 | -0.0301 | 0.171
6 | RMDN3 (UniProt Q96TC7) | -0.522 | -0.501 | 0.289
7 | RMND1 (UniProt Q9NWS8) | 0.392 | 0.519 | 0.244
8 | RMND5A (UniProt Q9H871) | 0.216 | 0.0656 | 0.156
9 | RNASEH2A (UniProt O75792) | 0.0654 | 0.493 | 0.138
10 | RNASEH2B (UniProt Q5TBB1) | 0.719 | 0.517 | -0.161
11 | RNASEH2C (UniProt Q8TDP1) | -0.258 | -0.493 | -0.406
12 | RNF2 (UniProt Q99496) | -0.111 | -0.172 | -0.107
13 | RNF4 (UniProt P78317) | -1.23 | -0.848 | -0.192
14 | RNF5 (UniProt Q99942) | -0.0839 | 0.142 | -0.145
15 | RNF10 (UniProt Q8N5U6) | -0.0188 | -0.286 | -0.23
16 | RNF14 (UniProt Q9UBS8) | -1.18 | 0.11 | 0.158
17 | RNF20 (UniProt Q5VTR2) | -0.218 | -0.026 | -0.112
18 | RNF25 (UniProt Q96BH1) | -0.412 | -0.217 | -1.12
19 | RNF31 (UniProt Q96EP0) | -0.101 | 0.0489 | -0.255
20 | RNF34 (UniProt Q969K3) | -0.0298 | 0.0211 | -0.392
21 | RNF40 (UniProt O75150) | 0.453 | 0.161 | 0.711
22 | RNF113A (UniProt O15541) | -0.642 | -0.0196 | -0.554
23 | RNF114 (UniProt Q9Y508) | -0.534 | -0.407 | -1.6
24 | RNF121 (UniProt Q9H920) | -1 | -0.693 | -1.09
25 | RNF123 (UniProt Q5XPI4) | -0.194 | -0.0174 | -0.445
26 | RNF126 (UniProt Q9BV68) | -1 | -1.02 | -2.65
27 | RNF139 (UniProt Q8WU17) | -1.16 | -0.12 | 0.947
28 | RNF149 (UniProt Q8NC42) | -0.375 | -0.859 | -0.556

Row | Target | thermal stability z-score (lipoamide; [1]) | thermal stability z-score (lipoamide; arsenate co-treatment: none) | thermal stability z-score (potassium arsenate)
29 | RNF167 (UniProt Q9H6Y7) | -0.267 | -0.216 | 0.669
30 | RNF169 (UniProt Q8NCN4) | -0.0589 | 0.0354 | -0.0867
31 | RNF181 (UniProt Q9P0P0) | 1.27 | 1.68 | 0.00117
32 | RNF187 (UniProt Q5TA31) | -0.474 | -1.96 | -0.503
33 | RNF213 (UniProt Q63HN8) | -0.473 | -0.111 | -0.0363
34 | RNF214 (UniProt Q8ND24) | -0.0786 | -0.0159 | -0.33
35 | RNF216 (UniProt Q9NWF9) | -0.0849 | 0.015 | 0.679
36 | RNF219 (UniProt Q5W0B1) | -0.038 | -0.0978 | 0.0297
37 | RNF220 (UniProt Q5VTB9) | -0.19 | -0.015 | -0.283
38 | RNGTT (UniProt O60942) | -0.0218 | 0.0305 | -0.0249
39 | RNH1 (UniProt P13489) | 0.376 | 0.478 | -4.26
40 | RNMT (UniProt O43148) | 0.428 | 0.541 | 0.381
41 | RNPEP (UniProt Q9H4A4) | 0.126 | -0.189 | 0.878
42 | RNPS1 (UniProt Q15287) | 1.23 | 0.438 | 0.528
43 | ROBO1 (UniProt Q9Y6N7) | 0.154 | 0.0459 | -0.29
44 | ROCK1 (UniProt Q13464) | -0.134 | 0.211 | -0.122
45 | ROCK2 (UniProt O75116) | 0.504 | 0.462 | 0.245
46 | ROR2 (UniProt Q01974) | 0.3 | 0.449 | -0.811
47 | RP2 (UniProt O75695) | 0.38 | 1.49 | -0.738
48 | RPA1 (UniProt P27694) | -0.6 | -0.317 | 0.0213
49 | RPA2 (UniProt P15927) | -0.131 | -0.662 | 0.659
50 | RPA3 (UniProt P35244) | 0.313 | 0.624 | 0.872
51 | RPAP1 (UniProt Q9BWH6) | -0.806 | -0.223 | 0.256
52 | RPAP2 (UniProt Q8IXW5) | -0.0831 | -0.0884 | -0.0605
53 | RPAP3 (UniProt Q9H6T3) | -0.367 | -0.207 | 0.38
54 | RPE (UniProt Q96AT9) | 0.536 | 0.285 | -0.0195
55 | RPIA (UniProt P49247) | 0.704 | 0.8 | 0.27
